The source of these data is patent US20240368194A1, “IRAK4 DEGRADATION AGENT, AND PREPARATION METHOD THEREFOR AND USE THEREOF” (SHANGHAI LEADINGTAC PHARMACEUTICAL CO. LTD., priority 2021, published 2024).

The term DC50 denotes the concentration at which degradation of the target reaches its halfway point. The term Dmax denotes the greatest extent of degradation seen. A lower Dmax goes with shallow degradation.

IRAK4 protein in THP-1 cells, sequence (Q9NWZ3 whole entry): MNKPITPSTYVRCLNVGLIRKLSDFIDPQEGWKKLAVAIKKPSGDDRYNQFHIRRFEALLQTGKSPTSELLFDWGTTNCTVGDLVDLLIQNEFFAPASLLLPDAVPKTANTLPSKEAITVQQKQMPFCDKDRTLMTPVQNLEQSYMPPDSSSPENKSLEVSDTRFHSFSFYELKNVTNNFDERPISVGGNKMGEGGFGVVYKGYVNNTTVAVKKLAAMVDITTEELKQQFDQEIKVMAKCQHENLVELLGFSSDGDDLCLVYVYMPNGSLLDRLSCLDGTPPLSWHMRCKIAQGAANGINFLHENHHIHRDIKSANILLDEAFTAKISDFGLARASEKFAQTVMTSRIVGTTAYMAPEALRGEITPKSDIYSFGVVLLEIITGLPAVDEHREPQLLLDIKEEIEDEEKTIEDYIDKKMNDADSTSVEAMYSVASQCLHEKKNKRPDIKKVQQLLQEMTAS

This assay has as its target IRAK4 protein in THP-1 cells (Homo sapiens (Human), UniProt Q9NWZ3). The assay can be described thus: Degradation of IRAK4 in THP-1 cells, human IRAK4 AlphaLISA assay. In kind it is cell-based. The conditions noted are these: 24 h incubation. On the procedure:
THP-1 cells (Stem Cell Bank, Chinese Academy of Sciences) were inoculated onto a 24-well cell culture plate at 0.95 mL/well, with a cell density of 5×10^5 cells/well. The cell plate was incubated overnight in a 37° C., 5% carbon dioxide incubator, and 50 μL of a solution of a compound in dimethyl sulfoxide was added, such that the final concentration of the compound fell within the range of 0.03-3000 nM. After another 24 h of incubation, cells were collected into 1.5 mL centrifuge tubes and centrifuged at 1000 rpm at 4° C. for 5 min. The cell pellets were washed twice with 1×DPBS. The resuspended cells were lysed with 200 μL of lysis buffer (Western and IP cell lysis buffer (Beyotime), supplemented with 1 mM phenylmethylsulfonyl fluoride and protease inhibitor cocktail (Beyotime)), left to stand on ice for 30 mini, and then centrifuged at 14,000 g at 4° C. for 10 min. The supernatant samples were assayed by Western Blot for IRAK4 protein levels.
The above cell lysates were also tested for IRAK4 degradation using a human IRAK4 AlphaLISA assay kit (PerkinElmer, AL3117C). The method is specifically as follows: 2-μL test samples of cell lysate supernatant were transferred to a white 384-well plate (PerkinElmer, 6007299), and 4 μL of 5× anti-IRAK4 receptor beads (PerkinElmer, final concentration of 10 μg/mL) was then added. The plate was incubated at 23° C. for 30 min. Then 4 μL of 5× biotin-labeled anti-IRAK4 antibody (PerkinElmer, final concentration of 1 nM) was added, and the plate was incubated at 23° C. for 60 min. Finally, 10 μL of 2′ streptavidin-labeled donor beads (final concentration of 40 μg/mL) was added to each well, and the plate was incubated in the dark at 23° C. for 30 min. After the incubation was complete, AlphaLISA signal values were measured on a microplate reader EnVision (PerkinElmer, 2105) in the AlphaScreen standard mode, and IRAK4 concentrations were calculated from these signal values. Then a non-linear curve fitting of logarithmic concentration-inhibition rate was performed using GraphPad Prism 7, and the DC50 and Dmax values of the compound were obtained.
(In general: In Alpha technology, singlet oxygen from a donor bead excites a nearby acceptor bead.)
With `COc1cc2nn([C@H]3CC[C@@](COCCC4CCN(C(=O)c5ccc(Cl)c(N6CCC(=O)NC6=O)c5)CC4)(OC)CC3)cc2cc1NC(=O)c1cccc(C(F)(F)F)n1` [Example 22, N-(2-((1S,4S)-4-((2-(1-(4-chloro-3-(2,4-dioxotetrahydropyrimidin-1(2H)-yl)benzoyl)piperidin-4-yl)ethoxy)methyl)-4-methoxycyclohexyl)-6-methoxy-2H-indazol-5-yl)-6-(trifluoromethyl)pyridinecarboxamide], half-maximal degradation (DC50) was put at 3.42 nM and the Dmax worked out at 96.5%.

The compound `O=C1CCN(c2cc(C(=O)N3CCC4(CCN(C[C@H]5CC[C@H](n6cc(NC(=O)c7cnn8ccc(N9CC%10CCC(C9)O%10)nc78)c(C(F)F)n6)CC5)CC4)CC3)ccc2Cl)C(=O)N1` [Example 32, 5-(8-oxa-3-azabicyclo[3.2.1]octan-3-yl)-N-(1-((1R,4R)-4-((9-(4-chloro-3-(2,4-dioxotetrahydropyrimidin-1(2H)-yl)benzoyl)-3,9-diazaspiro[5.5]undecan-3-yl)methyl)cyclohexyl)-3-(difluoromethyl)-1H-pyrazol-4-yl)pyrazolo[1,5-a]pyrimidine-3-carboxamide] showed a DC50 of 3.46 nM and a Dmax of 90.5%.

In turn, `O=C1CCN(c2cc(C(=O)N3CCC4(CCN(C[C@H]5CC[C@H](n6cc(NC(=O)c7cnn8ccc(N9CCOCC9)nc78)c(C(F)F)n6)CC5)CC4)CC3)ccc2Cl)C(=O)N1` [Example 29, N-(1-((1R,4R)-4-((9-(4-chloro-3-(2,4-dioxotetrahydropyrimidin-1(2H)-yl)benzoyl)-3,9-diazaspiro[5.5]undecan-3-yl)methyl)cyclohexyl)-3-(difluoromethyl)-1H-pyrazol-4-yl)-5-morpholinopyrazolo[1,5-a]pyrimidine-3-carboxamide] yielded a DC50 of 2.75 nM and a Dmax of 98.5%.

Turning to `COc1cc2nn([C@H]3CC[C@](O)(COCCC4CCN(C(=O)c5ccc(Cl)c(N6CCC(=O)NC6=O)c5)CC4)CC3)cc2cc1NC(=O)c1cccc(C(F)(F)F)n1` [Example 10], the DC50 is 2.8 nM and the Dmax is 99.3%.

In turn, `Cc1nn([C@H]2CC[C@H](CN3CCC4(CC3)CCN(C(=O)c3ccc(Cl)c(N5CCC(=O)NC5=O)c3)CC4)CC2)cc1NC(=O)c1cnn2ccc(N3C[C@H]4C[C@@H]3CO4)nc12` [Example 7, 5-((1R,4R)-2-oxa-5-azabicyclo[2.2.1]heptan-5-yl)-N-(1-((1R,4R)-4-((9-(4-chloro-3-(2,4-dioxotetrahydropyrimidin-1(2H)-yl)benzoyl)-3,9-diazaspiro[5.5]undecan-3-yl)methyl)cyclohexyl)-3-methyl-1H-pyrazol-4-yl)pyrazolo[1,5-a]pyrimidine-3-carboxamide] came in with a DC50 of 148 nM and a Dmax of 76.4%.

Consider `COc1ccc(C(=O)N2CCC3(CCC(N(C)C[C@H]4CC[C@H](n5cc(NC(=O)c6cnn7ccc(N8CCOCC8)nc67)c(C(F)F)n5)CC4)CC3)CC2)cc1N1CCC(=O)NC1=O` [Example 59, N-(3-(difluoromethyl)-1-((1R,4R)-4-(((3-(3-(2,4-dioxotetrahydropyrimidin-1(2H)-yl)-4-methoxybenzoyl)-3-azaspiro[5.5]undecan-9-yl)(methyl)amino)methyl)cyclohexyl)-1H-pyrazol-4-yl)-5-morpholinopyrazolo[1,5-a]pyrimidine-3-carboxamide], for which the DC50 is 7.92 nM and the Dmax was 70.8%.

Regarding `CN(CCC1CCN(C(=O)c2ccc(Cl)c(N3CCC(=O)NC3=O)c2)CC1)C[C@H]1CC[C@H](n2cc(NC(=O)c3cnn4ccc(N5C[C@H]6C[C@@H]5CO6)nc34)c(C(F)F)n2)CC1` [Example 11, 5-((1R,4R)-2-oxa-5-azabicyclo[2.2.1]heptan-5-yl)-N-(1-((1R,4R)-4-(((2-(1-(4-chloro-3-(2,4-dioxotetrahydropyrimidin-1(2H)-yl)benzoyl)piperidin-4-yl)ethyl)(methyl)amino)methyl)cyclohexyl)-3-(difluoromethyl)-1H-pyrazol-4-yl)pyrazolo[1,5-a]pyrinidine-3-carboxamide], the DC50 was determined as 12.7 nM and the Dmax came to 90.7%.

As to `COc1ccc(C(=O)N2CCC(CCN(C)C[C@H]3CC[C@H](n4cc(NC(=O)c5cnn6ccc(N7CCC[C@H](N)C7)nc56)c(C(F)F)n4)CC3)CC2)cc1N1CCC(=O)NC1=O` [Example 36, 5-((S)-3-aminopiperidin-1-yl)-N-(3-(difluoromethyl)-1-((1R,4S)-4-(((2-(1-(3-(2,4-dioxotetrahydropyrimidin-1(2H)-yl)-4-methoxybenzoyl)piperidin-4-yl)ethyl)(methyl)amino)methyl)cyclohexyl)-1H-pyrazol-4-yl)pyrazolo[1,5-a]pyrimidine-3-carboxamide], it took 3.45 nM to reach half-maximal degradation (DC50) and the Dmax stood at 96%.

On to `Cc1ccc(C(=O)N2CCC3(CCN(C[C@H]4CC[C@H](n5cc(NC(=O)c6cnn7ccc(N8CCC[C@H](O)C8)nc67)c(C(F)F)n5)CC4)CC3)CC2)cc1N1CCC(=O)NC1=O` [Example 45, N-(3-(difluoromethyl)-1-((1R,4S)-4-((9-(3-(2,4-dioxotetrahydropyrimidin-1(2H)-yl)-4-methylbenzoyl)-3,9-diazaspiro[5.5]undecan-3-yl)methyl)cyclohexyl)-1H-pyrazol-4-yl)-5-((S)-3-hydroxypiperidin-1-yl)pyrazolo[1,5-a]pyrimidine-3-carboxamide], for which the DC50 worked out at 0.82 nM and the Dmax amounted to 96.2%.

With `O=C1CCN(c2cc(C(=O)N3CCC4(CCN(C[C@H]5CC[C@H](n6cc(NC(=O)c7cnn8ccc(N9CC%10(COC%10)C9)nc78)c(C(F)F)n6)CC5)CC4)CC3)ccc2Cl)C(=O)N1` [Example 48, N-(1-((1R,4R)-4-((9-(4-chloro-3-(2,4-dioxotetrahydropyrimidin-1(2H)-yl)benzoyl)-3,9-diazaspiro[5.5]undecan-3-yl)methyl)cyclohexyl)-3-(difluoromethyl)-1H-pyrazol-4-yl)-5-(2-oxa-6-azaspiro[3.3]heptan-6-yl)pyrazolo[1,5-a]pyrimidine-3-carboxamide], the DC50 was 5.55 nM and the Dmax came out at 94.4%.

For `CN(CCC1CCN(C(=O)c2ccc(F)c(C3CCC(=O)NC3=O)c2)CC1)C(=O)[C@H]1CC[C@H](n2cc(NC(=O)c3cnn4ccc(N5CCOCC5)nc34)c(C(F)F)n2)CC1` (stereo partly drawn) [Example 54, N-(3-(difluoromethyl)-1-((1R,4R)-4-((2-(1-(3-(2,6-dioxopyridin-3-yl)-4-fluorobenzoyl)piperidin-4-yl)ethyl)(methyl)carbamoyl)cyclohexyl)-1H-pyrazol-4-yl)-5-morpholinopyrazolo[1,5-a]pyrimidine-3-carboxamide], the DC50 was 8.13 nM and the Dmax stood at 88.2%.

Take `COc1cc2nn([C@H]3CC[C@](O)(COCC4CCN(C(=O)c5ccc(Cl)c(N6CCC(=O)NC6=O)c5)CC4)CC3)cc2cc1NC(=O)c1cccc(C(F)(F)F)n1` [Example 8, N-(2-((1S,4S)-4-(((1-(4-chloro-3-(2,4-dioxotetrahydropyrimidin-1(2H)-yl)benzoyl)piperidin-4-yl)methoxy)methyl)-4-hydroxycyclohexyl)-6-methoxy-2H-indol-5-yl)-6-(trifluoromethyl)pyridinecarboxamide]: the DC50 came to 8.8 nM and the greatest degradation seen (Dmax) is 86.8%.

Take `COc1cc2nn([C@H]3CC[C@](O)(CN(C)CC4CCC5(CC4)CCN(C(=O)c4ccc(Cl)c(N6CCC(=O)NC6=O)c4)CC5)CC3)cc2cc1NC(=O)c1cccc(C(F)(F)F)n1` [Example 17]: the DC50 turned out to be 10.4 nM and the Dmax was 99.4%.

With `CN(CCC1CCN(C(=O)c2ccc(Cl)c(N3CCC(=O)NC3=O)c2)CC1)C[C@H]1CC[C@H](n2cc(NC(=O)c3cnn4ccc(N5CCC[C@H](N)C5)nc34)c(C(F)F)n2)CC1` [Example 47, 5-((S)-3-aminopiperidin-1-yl)-N-(1-((1R,4S)-4-(((2-(1-(4-chloro-3-(2,4-dioxotetrahydropyrimidin-1(2H)-yl)benzoyl)piperidin-4-yl)ethyl)(methyl)amino)methyl)cyclohexyl)-3-(difluoromethyl)-1H-pyrazol-4-yl)pyrazolo[1,5-a]pyrimidine-3-carboxamide], it took 4.84 nM to reach half-maximal degradation (DC50) and the Dmax came to 99%.

`COc1ccc(C(=O)N2CCC(CCN(C)C[C@H]3CC[C@H](n4cc(NC(=O)c5cnn6ccc(N7CC8(COC8)C7)nc56)c(C(F)F)n4)CC3)CC2)cc1N1CCC(=O)NC1=O` [Example 39, N-(3-(difluoromethyl)-1-((1R,4R)-4-(((2-(1-(3-(2,4-dioxotetrahydropyrimidin-1(2H)-yl)-4-methoxybenzoyl)piperidin-4-yl)ethyl)(methyl)amino)methyl)cyclohexyl)-1H-pyrazol-4-yl)-5-(2-oxa-6-azaspiro[3.3]heptan-6-yl)pyrazolo[1,5-a]pyrimidine-3-carboxamide] showed a DC50 of 10.9 nM and a Dmax of 93.9%.
